According to PubChem BioAssay (NCI):
Where “and” joins values, the source holds several entries; their conditions need not be identical. Equal values may be shown once.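 Tested at 5 concentrations; 48 h exposure; 96-well plates; endpoints linearly interpolated, else capped at highest concentration. GI50: concentration for 50% inhibition of growth. TGI is the concentration that stops growth completely.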

Experiments:
Assay in all cases: DTP human tumour cell line panel, 48 h
COLO 205 colon = tested on: COLO 205 colon
HCT-15 colon = tested on: HCT-15 colon
NCI-H460 lung = tested on: NCI-H460 lung
RPMI-8226 leukemia = tested on: RPMI-8226 leukemia
SK-MEL-5 melanoma = tested on: SK-MEL-5 melanoma
SNB-19 CNS = tested on: SNB-19 CNS
SR leukemia = tested on: SR leukemia
DU-145 prostate = tested on: DU-145 prostate
MDA-MB-435 = tested on: MDA-MB-435
MDA-MB-231 breast = tested on: MDA-MB-231 breast

SMILES	TGI (COLO 205 colon)	TGI (HCT-15 colon)	TGI (NCI-H460 lung)	TGI (RPMI-8226 leukemia)	TGI (SK-MEL-5 melanoma)	TGI (SNB-19 CNS)	TGI (SR leukemia)	GI50 (COLO 205 colon)	GI50 (HCT-15 colon)	GI50 (RPMI-8226 leukemia)	GI50 (SNB-19 CNS)	TGI (DU-145 prostate)	TGI (MDA-MB-435)	GI50 (DU-145 prostate)	GI50 (MDA-MB-231 breast)	TGI (MDA-MB-231 breast)	GI50 (MDA-MB-435)	GI50 (NCI-H460 lung)	GI50 (SK-MEL-5 melanoma)
Cc1ccc(C2(O)CC(c3ccc([N+](=O)[O-])o3)=NN2C(=O)COc2ccccc2Cl)cc1 (stereo unspecified)	24.1 µM	24.1 µM	> 31.6 µM	> 31.9 µM	8.54 µM	> 100 µM	23.1 µM												
Nc1nc(N)c(N=O)c(Nc2ccc(I)cc2)n1	33.2 µM	96.7 µM	> 100 µM	> 100 µM	26.3 µM	> 100 µM	76.1 µM												
CCCCCCCCCC1C(C)c2c([nH]c3ccccc23)C2C(=O)N(c3ccccc3)C(=O)C21 (stereo unspecified)		23 µM	13.7 µM		31.6 µM														
COc1cc2c(c(OC)c1OC)-c1ccc(SC)c(=O)cc1[C@@H](NCc1cccc(C#N)c1)CC2	0.0593 µM and < 0.0075 µM		8.97 µM	40.7 µM	0.0641 µM	> 75 µM	12.2 µM	< 0.0075 µM	< 0.0075 µM	< 0.0075 µM	< 0.0075 µM								
CCOC(=O)N1N=NC2C3OC(C[C@@]3(C#N)OC(C)=O)[C@H]21 (stereo partly specified)	> 100 µM	> 100 µM	> 100 µM	> 100 µM	> 100 µM	> 100 µM	> 100 µM												
CN(C)CCNC(=O)Cn1ccc(=O)c2ccc([N+](=O)[O-])cc21	> 100 µM	> 100 µM	> 100 µM	> 100 µM	> 100 µM	> 100 µM	> 100 µM					> 100 µM	> 100 µM						
CCC1(C(=O)OC)CCc2c(OC)ccc(OC)c2C1=O (stereo unspecified)	> 100 µM	> 100 µM	> 100 µM	> 100 µM	> 100 µM	> 100 µM													
C[C@]12CCC3c4ccc(O)cc4CCC3C1Cc1ccc(O)cc12 (stereo partly specified)	26 µM	19 µM	18.2 µM	18 µM	16.8 µM	22.7 µM		12.1 µM	4.51 µM	3.75 µM	10.6 µM	28.5 µM	11.1 µM	11.5 µM	7.44 µM	22.2 µM	2.44 µM	4.88 µM	4.85 µM
CO[C@H]1C[C@@H]2CC[C@@H](C)[C@@](O)(O2)C(=O)C(=O)N2CCCC[C@H]2C(=O)O[C@H]([C@H](C)C[C@@H]2CC[C@@H](OP(C)(C)=O)[C@H](OC)C2)CC(=O)[C@H](C)/C=C(\C)[C@@H](O)[C@@H](OC)C(=O)[C@H](C)C[C@H](C)/C=C/C=C/C=C/1C	27.7 µM	29.5 µM	21.8 µM	40.6 µM	18.4 µM	23.5 µM		12.7 µM	1.21 µM	8.49 µM	7.03 µM	22.4 µM	23.9 µM	10.4 µM	12.4 µM	27.7 µM	1.41 µM		
CC(=O)OCC1OC(n2c(=O)n(-c3ccccc3)c(=O)c3cc(Br)cc(Br)c32)C(OC(C)=O)C(OC(C)=O)C1OC(C)=O (stereo unspecified)	> 100 µM	> 100 µM	> 100 µM	> 100 µM	> 100 µM	> 100 µM													
Cc1c(C(=O)/C=C/c2ccccc2Cl)[n+](=O)c2ccccc2n1[O-]	28.8 µM	21.7 µM	24.4 µM	36.1 µM	31.9 µM	31 µM	51.5 µM												
COc1cc(C(=O)C/C(CCC(=O)Nc2ccc(Cl)cc2Cl)=N/NC(=O)C(N)=O)ccc1O	> 100 µM	> 100 µM	> 100 µM	> 100 µM	> 100 µM	> 100 µM													
CC(=O)Nc1ccccc1-c1cnc2ccccc2n1	> 100 µM	> 100 µM	> 100 µM	> 100 µM	> 100 µM	> 100 µM	> 100 µM												
CC(C)(C)OC(=O)NC1CCC[C@H]1O (stereo partly specified)			> 100 µM		> 100 µM	> 100 µM	> 100 µM												
Nc1ccc2c(c1)CC1c3ccccc3C(C2)c2ccccc21	> 100 µM	> 100 µM	> 100 µM	> 100 µM	> 100 µM	> 100 µM													
O=C(O)CCCCCO	> 100 µM	> 100 µM	> 100 µM	> 100 µM	> 100 µM	> 100 µM	> 100 µM												
CCOC(=O)C(Cc1ccccc1)NC(=O)OC(C)(C)C (stereo unspecified)	> 100 µM	> 100 µM	> 100 µM			> 100 µM													
CCc1ccc(Nc2cc(=O)[nH]c(=S)n2C)cc1	> 100 µM	> 100 µM	> 100 µM	> 100 µM	> 100 µM	> 100 µM	> 100 µM												
O=C(/C=C/c1ccccc1O)c1cccnc1			> 100 µM		> 100 µM	> 100 µM	> 100 µM												
